System: Human subcutaneous adipocytes
Experiment: Promotion of fat degradation (lipolysis) in human adipocytes, free glycerol in culture supernatant
Format: cell-based
Conditions: 30 μM test substance, 3 hours incubation at 37° C., versus 1% (v/v) DMSO control; Lipolysis Assay Kit; FIG. 1
Description: Human subcutaneous adipocytes (Zen-Bio, Inc.) plated onto a 96-well plate was obtained and pre-cultivated under a 5% CO2 atmosphere at 37° C. for 5 days in D-MEM/Ham's F12 Medium (1:1, v/v) containing 3% (v/v) fetal bovine serum, 15 mM HEPES (pH 7.4), 33 μM biotin, 17 μM pantothenate, 100 nM human insulin, 1 μM dexamethasone, 100 U/mL penicillin, 100 μg/mL streptomycin and 0.25 μg/mL amphotericin B. Then, an astaxanthin free form (Wako Pure Chemical Industries, Ltd.: purity 94% or more) and the astaxanthin monoester obtained in Preparation Example 1 were dissolved in dimethyl sulfoxide (DMSO) to prepare stock solutions at a concentration of 3 mM, respectively. The stock solutions were diluted to 30 μM with LIP-2 Assay Buffer (Zen-Bio, Inc.) to prepare test solutions. As a control, 1% (v/v) DMSO solution which was diluted with LIP-2 Assay Buffer was used. Each of the wells was washed with Wash Buffer (Zen-Bio, Inc.) and the test solutions were added to the wells. These wells were incubated under a 5% CO2 atmosphere at 37° C. for 3 hours. After the incubation, the amount of free glycerol in the culture supernatant was measured using a Lipolysis Assay Kit (Zen-Bio, Inc.). […]

Row | Molecule | percentage of fat degradation promoted, (A/B)×100(%), amount of free glycerol relative to control
1 | CC1=C(/C=C/C(C)=C/C=C/C(C)=C/C=C/C=C(C)/C=C/C=C(C)/C=C/C2=C(C)C(=O)[C@@H](O)CC2(C)C)C(C)(C)C[C@H](O)C1=O [astaxanthin] | significantly increased
2 | astaxanthin monoester | significantly increased
